Experiment [1] concerns the target T1, human MCP-1 binding to THP-1 cells (Homo sapiens, UniProt P41597).
T1 construct: endogenous in cells; host or cells: THP-1 (whole cells)
T1 sequence (P41597 1-360 isoform P41597-2): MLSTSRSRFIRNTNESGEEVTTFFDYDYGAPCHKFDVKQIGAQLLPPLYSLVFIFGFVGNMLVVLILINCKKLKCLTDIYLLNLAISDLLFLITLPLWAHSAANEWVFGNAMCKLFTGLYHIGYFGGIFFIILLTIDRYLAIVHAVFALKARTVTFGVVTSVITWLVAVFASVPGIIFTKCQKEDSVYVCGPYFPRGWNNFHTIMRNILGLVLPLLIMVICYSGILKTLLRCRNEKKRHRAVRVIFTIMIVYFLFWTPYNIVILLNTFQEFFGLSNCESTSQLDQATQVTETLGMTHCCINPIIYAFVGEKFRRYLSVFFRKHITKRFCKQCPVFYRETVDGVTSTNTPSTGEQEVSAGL
Put plainly: Inhibitory activity against binding of [125I]-labeled human MCP-1 to THP-1 cells (method 1). The conditions noted are these: concentration of 10 μM. The text has this: Two kinds of DNA synthetic primers (5′-[…]-3′ (SEQ ID NO:1) and 5′-[…]-3′) (SEQ ID NO:2) having restriction enzyme recognition sites applied on the basis of the known human MCP-1 gene sequence (see, for example, Yoshimura, T. et al. FEBS Letters 1989, 244, 487-493) were used to amplify a cDNA derived from human vascular endothelial cells (purchased from Kurabow) according to a PCR method. The amplified fragment was cleaved with restriction enzymes (PstI and XbaI) and then ligated into a transfer vector pVL1393 (Invitrogen Co.). The resulting vector was co-transfected with an infectious baculovirus into Sf-9 insect cells. […]
After completing the reaction, the reaction solution was filtered through a filter, and the filter was washed with 200 μL of cold PBS twice (the reaction solution was filtered after adding 200 μL of the cold PBS). The filter was air-dried and […] of liquid scintillator was then added into each well to count the radioactivity retained by the cells on the filter using TopCount (Packard Instrument Co.).
The count when 100 ng of the above human MCP-1 expressed with baculovirus (unlabeled) instead of the test compound was added was subtracted as nonspecific adsorption, and the count when the test compound was not added was taken as 100%. Thereby, the inhibitory activity of the test compound against binding of the human MCP-1 to THP-1 cells was calculated. […]

Experiment [2] concerns the target T2, human MIP-1 α binding to THP-1 cells (Homo sapiens, UniProt P32246).
T2 construct: endogenous in cells; host or cells: THP-1 (whole cells)
T2 sequence (P32246 1-355): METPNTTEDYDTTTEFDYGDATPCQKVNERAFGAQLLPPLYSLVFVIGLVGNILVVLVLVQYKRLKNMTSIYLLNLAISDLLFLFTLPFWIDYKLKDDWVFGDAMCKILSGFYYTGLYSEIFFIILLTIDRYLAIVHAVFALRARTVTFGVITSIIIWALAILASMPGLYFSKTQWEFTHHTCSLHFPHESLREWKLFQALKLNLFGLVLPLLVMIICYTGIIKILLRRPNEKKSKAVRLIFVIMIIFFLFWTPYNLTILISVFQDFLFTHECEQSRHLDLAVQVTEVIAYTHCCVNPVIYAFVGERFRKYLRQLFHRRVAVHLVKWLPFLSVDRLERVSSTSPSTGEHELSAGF
The experiment can be described thus: Inhibitory activity against binding of MIP-1 α to THP-1 cells. The conditions noted are these: concentration of 2 μM. As to the method: THP-1 cells which are human monocytic leukemia cell line were suspended in an assay buffer [prepared by adding 0.1% of BSA and 25 mM of HEPES to RPMI-1640 (Gibco-BRL Co.) and adjusting the pH to 7.4] so as to provide 1×10^7 cells/mL to thereby afford a cell suspension. A solution obtained by diluting the test compound with the assay buffer was used as a test compound solution. A solution prepared by diluting an iodine-labeled human MIP-1 α (DuPont NEN Co.) with the assay buffer so as to provided 250 nCi/mL was used as a labeled ligand solution. […]
After completing the reaction, the reaction solution was filtered through a filter, and the filter was washed with 200 μL of cold PBS twice (the reaction solution was filtered after adding 200 μL of the cold PBS). The filter was air-dried, and 25 μL of liquid scintillator was then added into each well to count the radioactivity retained by the cells on the filter using TopCount (Packard Instrument Co.).
The count when 100 ng of an unlabeled human MIP-1 α (Peprotech Co.) instead of the test compound was added was subtracted as nonspecific adsorption, and the count when the test compound was not added was taken as 100%. Thereby, the inhibitory activity of the test compound against binding of the human MIP-1 α to THP-1 cells was calculated. […]

Experiment [3] has as its system chronic relapsing experimental allergic encephalomyelitis. Put plainly: Chronic relapsing experimental allergic encephalomyelitis in mice. Type of experiment: in vivo, SJL/J×PL/J F1 mice.
Experiment [4] relates to collagen-induced arthritis. Put plainly: Collagen-induced arthritis in rats. In kind it is in vivo, Lewis female rats. The conditions noted are these: 300 mg/kg orally every day for 3 weeks, 5, 7, 9, 12 and 14 days after boosting.
The test system of experiment [5] is glomerulonephritis induced by anti-glomerular basement membrane serum. The experiment can be described thus: Masugi's nephritis model in WKY rats. In kind it is in vivo. How it is done: Rabbits were immunized with a trypsin fraction of rat kidney cortex to provide an anti-glomerular basement membrane serum which was intravenously injected to 4-weeks-old female WKY rats (Charles River) in a dose of 2.5 mL/kg body weight to induce glomerulonephritis. After injection of the antiserum, urine of each animal was collected for 24 hours with metabolic cages for rats (Clea Japan, Inc.) on the 1st, 4th, 7th, 10th and 14th days after the injection. The amount of the urine was measured by urine weight and the protein content in the urine was measured by using a kit for assaying proteins in urine and cerebrospinal fluid (Tonein TP-II, Otsuka Pharmaceutical Co., Ltd.) to determine the amount of proteins excreted in urine per day. Serum of the animals subjected to the experiments was collected on the 15th day after injecting the antiserum, and creatinine concentration in blood was measured with a creatinine assay kit (Autosera®), Daiichi Pure Chemicals Co., Ltd.) using a Hitach±7070 model autoanalyzer. The test compound was daily orally administered in a dose of 100 mg/kg body weight twice a day from the date of injecting the anti-glomerular basement membrane serum (about 10:00 a.m. and about 6:00 p.m. in Experiment 1 and about 10:00 a.m. and about 5:00 p.m. in Experiment 2). In the control group, only the solution (a 0.5% aqueous solution of sodium carboxymethylcellulose) was orally administered. The administration volume was 10 mL/kg body weight, and the number of animals (N) was 10.

[6] abbreviates: 300 mg/kg body weight oral, to 21 days after injection of the emulsion.
Where [7] appears, read: 300 mg/kg body weight orally, vs control.

Molecules are shown by their SMILES.

Data on 3 compounds can be found in patent US7390830B1, “Remedies or prophylactics for diseases in association with chemokines” (Teijin Limited, priority 1999, dated 2008).

Usually inhibition stands for the change of the read-out against control, counted positive when it falls. A higher inhibition goes with a response far below the control.

In the case of `O=C(CNC(=O)c1cccc(C(F)(F)F)c1)NCC1CCN(Cc2cccc(OC(F)(F)F)c2)CC1` [Compd. No. 927, 1-[3-(trifluoromethoxy)benzyl]-4-[(N-(3-(trifluoromethyl)benzoyl)glycyl)aminomethyl]piperidine], in experiment [1], the inhibition at 10 µM fell in the range of 20 to 50%.

For `CCOc1cccc(C(=O)N[C@H](Cc2ccccc2)C(=O)NCC2CCN(Cc3ccc(Cl)cc3)CC2)c1` [Compd. No. 2091, 1-(4-chlorobenzyl)-4-[[N-(3-ethoxybenzoyl)-D-phenylalanyl]aminomethyl]piperidine], in experiment [2], the inhibition at 2 µM was 50 to 80%.

For the compound `Nc1cc(F)c(F)cc1C(=O)NCC(=O)NCC1CCN(Cc2ccc(Cl)cc2)CC1` [compound 1245], the “Maximal Clinical Score” value in experiment [3] (300 mg/kg body weight oral, score 0-5, to 21 days after injection of the emulsion) amounted to 2.5 ± 1.5. For the same compound, the “Duration of Clinical Sign” value in experiment [3] (setting [6]) amounted to 5.4 ± 2.4. Besides, in experiment [3] (setting [6]), the “Incidence (Number of Onset Animals/Number of Immunized Animals)” value is 17/19. In addition, the “onset date” value in experiment [3] (setting [6]) was 13.2 ± 2.4; in experiment [3] (setting [7]), “delay in onset date (p<0.05)”. For the same compound, the “symptoms (clinical scores)” value in experiment [3] (setting [7]) is “tendency to inhibit symptoms (no significant difference)”. In experiment [4], the “joint swelling (hindlimb footpad volume)” value was “significantly inhibited joint swelling”. Besides, the “inhibition of the concentration of urinary proteins” value in experiment [5] (4th day after antiserum, 100 mg/kg orally twice a day, vs control) is listed as 74%; in experiment [5] (7th day after antiserum, 100 mg/kg orally twice a day, vs control), 85%; in experiment [5] (10th day after antiserum, 100 mg/kg orally twice a day, vs control), 81%; in experiment [5] (14th day after antiserum, 100 mg/kg orally twice a day, vs control), 82%. In addition, the “decrease of creatinine concentration in blood” value in experiment [5] (15th day after antiserum, 100 mg/kg orally twice a day, vs control) was found to be 10%. Besides, in experiment [5] (WKY rats, Experiment 2, 100 mg/kg body weight orally twice a day, 15th day after injecting anti-glomerular basement membrane serum, mean ± spread), the “Serum Creatinine Concentration on the 15th Day” value turned out to be 0.48 ± 0.04 mg/dL.
